“And” between values parts separate entries of the source, which are not always exact repeats. Identical values can stand only once. “Also recorded” adds a separate entry of the source.
Assays:
D3-dopamine receptors = target: T1, D3-dopamine receptors (Homo sapiens, UniProt P35462); assay: Eurofins Cerep radioligand binding screen; details: 10 μM
T1 construct: Eurofins Cerep; host or cells: cell membrane homogenates
Method: (§1) The compounds were screened at each target once, in duplicate, at 100 nM and 10 μM. […] The assay was valid if the reliability criteria, K i or IC50 values within 1/2 Log of historical values, were met. Radioligand binding assay methods were as previously described with only minor modifications , (see table in Supplementary Figure S4 for radioligands, protein sources, and assay test conditions). Briefly, cell membrane homogenates were incubated with either an antagonist or agonist radioligand in the absence or presence of the test compound in a buffer. A specific unlabeled agonist or antagonist at the target determined nonspecific binding. Following incubation, the samples were filtered rapidly under vacuum through glass fiber filters presoaked in a buffer and rinsed several times with an ice-cold buffer using a 48-sample or 96-sample cell harvester. Using a scintillation cocktail, the filters were counted for radioactivity in a scintillation counter. Compound binding was calculated as a percent inhibition of the binding of the radioactively labeled ligand specific for each target. Preparatory methods for enzyme inhibition assays were similar to radioligand binding assays. These assays involved using a known substrate, stimulus, and/or tracer, and detection methods included LANCE, fluorimetry, photometry, luminescence, or scintillation counting (see table in Supplementary Figure S4). Results of the screening assays showing an inhibition or stimulation higher than 50% were designated “hits” and considered to represent significant effects of the test compounds.

N-type Ca2+ channels = target: T2, N-type Ca2+ channels (Rattus norvegicus, UniProt Q02294); assay: Eurofins Cerep radioligand binding screen; details: rat cerebral cortex; Figure S6
T2 construct: Eurofins Cerep (contract screen)
Method: as §1

[1] = test system: voltage-gated sodium channels; assay: Eurofins Cerep radioligand binding screen; details: 10 μM
Method: as §1

β2-adrenoceptors = target: T3, β2-adrenoceptors (Homo sapiens, UniProt P07550); assay: Eurofins Cerep radioligand binding screen; details: 10 μM
T3 construct: Eurofins Cerep; host or cells: cell membrane homogenates
Method: as §1

rat α2AR = target: T4, rat α2AR (Rattus norvegicus, UniProt P22909); details: agonist mode; HEK293 cells; Figure S2
T4 sequence (P22909 1-465): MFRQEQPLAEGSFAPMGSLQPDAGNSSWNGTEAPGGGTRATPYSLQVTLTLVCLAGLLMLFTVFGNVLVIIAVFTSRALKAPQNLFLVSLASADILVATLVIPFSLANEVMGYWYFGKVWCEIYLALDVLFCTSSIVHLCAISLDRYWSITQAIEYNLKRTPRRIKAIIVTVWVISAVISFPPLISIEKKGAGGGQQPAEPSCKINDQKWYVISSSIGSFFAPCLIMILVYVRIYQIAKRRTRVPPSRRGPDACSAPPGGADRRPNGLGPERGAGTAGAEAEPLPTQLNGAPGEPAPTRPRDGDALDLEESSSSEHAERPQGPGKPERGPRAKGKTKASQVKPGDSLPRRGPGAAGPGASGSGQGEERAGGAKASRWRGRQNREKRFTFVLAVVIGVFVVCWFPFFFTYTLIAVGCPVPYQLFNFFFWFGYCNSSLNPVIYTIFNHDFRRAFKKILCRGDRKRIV

α2AR = target: T5, α2AR (Homo sapiens, UniProt P08913)
T5 sequence (P08913 1-465): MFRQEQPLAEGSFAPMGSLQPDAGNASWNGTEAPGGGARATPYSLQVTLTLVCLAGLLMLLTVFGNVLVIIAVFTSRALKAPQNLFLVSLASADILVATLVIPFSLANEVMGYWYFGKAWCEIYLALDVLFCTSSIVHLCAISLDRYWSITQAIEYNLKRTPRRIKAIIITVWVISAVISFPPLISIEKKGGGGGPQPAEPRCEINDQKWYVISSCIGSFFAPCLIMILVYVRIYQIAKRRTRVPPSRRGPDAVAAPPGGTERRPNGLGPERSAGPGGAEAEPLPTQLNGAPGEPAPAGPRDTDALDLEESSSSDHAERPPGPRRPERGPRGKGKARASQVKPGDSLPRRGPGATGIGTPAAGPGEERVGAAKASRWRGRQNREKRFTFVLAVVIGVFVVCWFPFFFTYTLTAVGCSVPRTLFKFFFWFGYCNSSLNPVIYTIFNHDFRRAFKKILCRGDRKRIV

[2] = male mice, 165 mg/kg PO; cited from earlier work

T1 sequence (P35462 whole entry): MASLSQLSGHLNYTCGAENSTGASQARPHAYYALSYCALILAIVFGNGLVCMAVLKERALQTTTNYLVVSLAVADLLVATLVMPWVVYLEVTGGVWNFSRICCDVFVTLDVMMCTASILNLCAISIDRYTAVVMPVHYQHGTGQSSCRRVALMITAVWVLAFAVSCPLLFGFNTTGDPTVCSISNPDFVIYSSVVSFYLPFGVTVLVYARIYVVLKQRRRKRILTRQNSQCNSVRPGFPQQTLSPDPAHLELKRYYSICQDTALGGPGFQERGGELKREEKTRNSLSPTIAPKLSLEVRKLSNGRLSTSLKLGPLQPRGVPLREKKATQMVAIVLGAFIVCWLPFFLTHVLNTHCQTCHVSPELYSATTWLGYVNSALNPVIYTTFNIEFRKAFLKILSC
T2 sequence (Q02294 whole entry): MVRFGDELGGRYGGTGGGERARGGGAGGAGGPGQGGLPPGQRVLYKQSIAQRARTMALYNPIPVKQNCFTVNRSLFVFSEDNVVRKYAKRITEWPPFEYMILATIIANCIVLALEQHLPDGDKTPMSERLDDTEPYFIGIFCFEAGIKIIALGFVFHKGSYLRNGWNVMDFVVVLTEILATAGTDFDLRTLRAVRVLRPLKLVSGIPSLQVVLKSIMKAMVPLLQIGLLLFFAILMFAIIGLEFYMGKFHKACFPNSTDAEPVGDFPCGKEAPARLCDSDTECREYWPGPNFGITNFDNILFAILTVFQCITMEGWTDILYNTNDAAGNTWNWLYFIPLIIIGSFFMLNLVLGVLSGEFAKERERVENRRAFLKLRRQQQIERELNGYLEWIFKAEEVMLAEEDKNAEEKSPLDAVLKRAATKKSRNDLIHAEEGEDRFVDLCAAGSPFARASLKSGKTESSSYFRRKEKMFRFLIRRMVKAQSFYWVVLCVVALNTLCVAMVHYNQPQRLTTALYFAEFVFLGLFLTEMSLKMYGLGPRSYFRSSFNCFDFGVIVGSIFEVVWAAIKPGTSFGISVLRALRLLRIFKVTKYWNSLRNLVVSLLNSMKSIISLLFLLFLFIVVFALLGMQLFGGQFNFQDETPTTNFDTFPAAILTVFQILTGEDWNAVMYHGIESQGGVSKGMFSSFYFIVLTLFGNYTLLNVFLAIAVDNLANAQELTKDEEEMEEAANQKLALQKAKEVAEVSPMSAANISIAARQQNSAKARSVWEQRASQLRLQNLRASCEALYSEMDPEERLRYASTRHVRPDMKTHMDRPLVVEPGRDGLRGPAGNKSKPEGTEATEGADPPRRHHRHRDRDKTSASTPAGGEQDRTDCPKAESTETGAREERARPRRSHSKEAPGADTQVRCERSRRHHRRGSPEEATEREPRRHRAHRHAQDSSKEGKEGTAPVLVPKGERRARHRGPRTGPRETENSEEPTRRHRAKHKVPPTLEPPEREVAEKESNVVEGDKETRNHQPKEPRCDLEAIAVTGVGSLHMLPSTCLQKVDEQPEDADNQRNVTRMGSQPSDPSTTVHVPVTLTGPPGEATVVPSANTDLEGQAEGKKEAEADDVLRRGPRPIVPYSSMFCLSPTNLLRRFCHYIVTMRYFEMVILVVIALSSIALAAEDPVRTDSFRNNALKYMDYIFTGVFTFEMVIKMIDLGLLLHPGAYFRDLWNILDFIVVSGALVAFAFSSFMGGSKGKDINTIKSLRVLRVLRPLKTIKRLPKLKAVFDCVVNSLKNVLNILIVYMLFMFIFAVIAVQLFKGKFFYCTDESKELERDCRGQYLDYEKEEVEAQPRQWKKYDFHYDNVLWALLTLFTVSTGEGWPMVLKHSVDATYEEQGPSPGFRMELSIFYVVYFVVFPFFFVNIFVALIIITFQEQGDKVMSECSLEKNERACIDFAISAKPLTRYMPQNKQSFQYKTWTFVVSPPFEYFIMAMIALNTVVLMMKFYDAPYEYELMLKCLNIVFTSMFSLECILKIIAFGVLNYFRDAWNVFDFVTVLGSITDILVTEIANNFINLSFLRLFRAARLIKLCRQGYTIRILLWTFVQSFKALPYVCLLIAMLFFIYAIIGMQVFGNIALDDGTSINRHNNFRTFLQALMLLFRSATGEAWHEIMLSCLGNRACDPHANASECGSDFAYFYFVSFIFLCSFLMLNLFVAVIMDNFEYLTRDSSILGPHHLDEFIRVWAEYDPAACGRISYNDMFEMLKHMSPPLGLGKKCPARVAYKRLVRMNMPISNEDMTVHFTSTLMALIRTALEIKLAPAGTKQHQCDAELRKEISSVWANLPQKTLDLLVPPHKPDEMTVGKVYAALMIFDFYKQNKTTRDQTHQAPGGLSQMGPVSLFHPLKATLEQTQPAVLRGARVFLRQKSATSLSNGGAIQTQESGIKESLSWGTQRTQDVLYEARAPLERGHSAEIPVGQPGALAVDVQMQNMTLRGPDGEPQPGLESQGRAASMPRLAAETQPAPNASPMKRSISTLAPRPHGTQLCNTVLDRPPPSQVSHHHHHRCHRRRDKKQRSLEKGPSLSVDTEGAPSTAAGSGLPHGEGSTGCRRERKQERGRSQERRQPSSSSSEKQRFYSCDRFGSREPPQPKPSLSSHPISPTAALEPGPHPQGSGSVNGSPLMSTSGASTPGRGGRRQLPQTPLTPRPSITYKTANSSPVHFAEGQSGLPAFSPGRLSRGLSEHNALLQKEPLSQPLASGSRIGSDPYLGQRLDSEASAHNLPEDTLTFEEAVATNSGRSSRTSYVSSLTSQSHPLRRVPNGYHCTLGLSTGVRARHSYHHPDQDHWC
T2 sequence (P54287 whole entry partner): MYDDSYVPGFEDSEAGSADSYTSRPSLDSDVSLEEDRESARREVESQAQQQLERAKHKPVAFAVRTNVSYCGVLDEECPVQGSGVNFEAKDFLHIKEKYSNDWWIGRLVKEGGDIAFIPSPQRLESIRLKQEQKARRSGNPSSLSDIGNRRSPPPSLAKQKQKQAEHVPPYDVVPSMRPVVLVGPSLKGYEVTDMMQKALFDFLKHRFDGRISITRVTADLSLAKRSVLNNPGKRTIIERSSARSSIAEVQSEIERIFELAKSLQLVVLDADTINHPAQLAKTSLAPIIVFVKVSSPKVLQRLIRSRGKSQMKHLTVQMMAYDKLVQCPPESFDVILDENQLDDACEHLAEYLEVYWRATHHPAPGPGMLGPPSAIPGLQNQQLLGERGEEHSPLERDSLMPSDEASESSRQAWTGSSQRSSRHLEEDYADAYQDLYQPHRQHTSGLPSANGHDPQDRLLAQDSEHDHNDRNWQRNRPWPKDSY
T2 sequence (P54290 25-944 partner limits assumed): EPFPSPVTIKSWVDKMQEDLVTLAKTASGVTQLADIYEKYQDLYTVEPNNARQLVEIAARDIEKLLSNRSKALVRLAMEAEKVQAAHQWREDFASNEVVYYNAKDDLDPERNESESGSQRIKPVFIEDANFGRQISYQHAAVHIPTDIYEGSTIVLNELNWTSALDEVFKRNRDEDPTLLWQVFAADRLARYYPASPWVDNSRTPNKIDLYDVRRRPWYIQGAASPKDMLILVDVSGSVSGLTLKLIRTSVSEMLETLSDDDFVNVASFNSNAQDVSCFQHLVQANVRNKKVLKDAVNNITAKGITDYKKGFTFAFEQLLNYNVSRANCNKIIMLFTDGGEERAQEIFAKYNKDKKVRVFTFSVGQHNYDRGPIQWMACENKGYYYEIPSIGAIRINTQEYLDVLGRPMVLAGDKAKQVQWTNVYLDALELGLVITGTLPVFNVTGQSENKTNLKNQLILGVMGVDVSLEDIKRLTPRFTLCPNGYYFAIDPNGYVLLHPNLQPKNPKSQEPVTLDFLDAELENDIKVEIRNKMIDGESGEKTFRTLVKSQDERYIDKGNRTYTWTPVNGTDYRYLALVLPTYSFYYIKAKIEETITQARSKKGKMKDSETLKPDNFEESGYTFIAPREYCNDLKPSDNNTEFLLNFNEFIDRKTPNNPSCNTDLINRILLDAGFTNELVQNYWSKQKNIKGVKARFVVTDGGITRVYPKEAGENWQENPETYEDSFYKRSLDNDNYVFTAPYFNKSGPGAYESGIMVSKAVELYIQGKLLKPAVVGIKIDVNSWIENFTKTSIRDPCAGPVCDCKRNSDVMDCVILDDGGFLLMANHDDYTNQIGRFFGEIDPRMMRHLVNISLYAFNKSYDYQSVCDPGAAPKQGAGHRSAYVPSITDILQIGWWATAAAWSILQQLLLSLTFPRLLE
T2 sequence (P54290 945-1091 partner limits assumed): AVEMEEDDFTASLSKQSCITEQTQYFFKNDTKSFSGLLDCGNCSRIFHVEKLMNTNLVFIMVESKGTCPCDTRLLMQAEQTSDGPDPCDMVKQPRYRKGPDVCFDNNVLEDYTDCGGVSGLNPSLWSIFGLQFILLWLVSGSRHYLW

Substance: mitragynine
- Inhibition of radioligand binding, D3-dopamine receptors (D3-dopamine receptors): ~57%
- Affinity at N-type Ca2+ channels (N-type Ca2+ channels): no appreciable affinity
- Inhibition of radioligand binding, voltage-gated sodium channels [1]: ~71%
- Inhibition of specific radioligand binding, β2-adrenoceptors (β2-adrenoceptors): > 60%
- Effect on forskolin-induced cAMP, rat α2AR in HEK293 (rat α2AR): no significant functional effects
- Activation of α2AR-Gαs(short) (α2AR; Figure S1): did not activate α2AR–Gαs; also recorded: no effect
- Activation of the seven Gαi/o-protein subtypes coupled to α2AR (α2AR; concentrations up to 30 μM): did not activate any of the seven Gαi/o-protein subtypes
- Activation of Gαq or Gα11 via α2ARs (α2AR; data not shown): no effect
- Kb (α2AR; read-out: Kb, antagonist, αi1, α2AR-Gαi1, antagonism of clonidine, Gaddum-Schild): 5.65 µM
- EC50, αgust (α2AR; α2AR-Gαgust): inactive
- EC50, αi2 (α2AR; α2AR-Gαi2): inactive
- EC50, αi3 (α2AR; α2AR-Gαi3): inactive
- EC50, αoA (α2AR; α2AR-GαoA): inactive
- EC50, αoB (α2AR; α2AR-GαoB): inactive
- EC50, αz (α2AR; α2AR-Gαz): inactive
- Peak brain concentration [2]: approximately 35 μg/g of wet brain tissue and ~88 μM
